The source of these data is patent US20210017607A1, “Methods of Predicting Responsiveness to Cancer Therapies” (The University of Chicago, priority 2019, published 2021).

This assay concerns Myc-CAP-PTEN^−/− tumors. The experiment in a line: Myc-CAP-PTEN−/− syngeneic tumors in vivo (growth, flow cytometry). The arrangement: species or system mouse. As for the experimental part: FIGS. 35A-35D. […] (35A) Myc-CAP-PTEN^−/− cells were treated with copanlisib […] (IC90 concentration) in vitro for 24 hours, and protein extracts were harvested for western blotting analysis with the indicated antibodies to analyze PI3K activation. (35B) Supernatants from (35A) were harvested for cytokine array profiling. n=3 independent in vitro experiments. (35C) Mice bearing Myc-CAP-PTEN^−/− established syngeneic tumors (200 mm^3) were treated with copanlisib (14 mg/kg, every other day, until tumors reached 2000 mm^3). Tumor volumes were monitored daily and graphed. (35D) At the end of treatment, tumors were analyzed by flow cytometry for tumor infiltrating immune cell subsets. n=5 mice per group.
FIGS. 37A and 37B. Myc-CAP-PTEN deficient cancers are resistant to ADT/PARPi/PI3Ki/combination due to an absence of macrophage infiltration/activation and secondary CD8/CD4 T cell infiltration following treatment. Syngeneic PTEN-proficient and PTEN-deficient Myc-CAP mice were treated with a single dose of degarelix, rucaparib (PARP inhibitor), BKM120 (pan-PI3K inhibitor), or anti-PD-L1 antibody, singly and in combination for 3 weeks. (37A) Tumor volumes were monitored, as indicated. (37B) Tumors were harvested at the end of treatment and macrophage infiltration and activation (upper left and right panels), and CD4 and CD8 T cell infiltration (lower left and right panels, respectively) were analyzed by flow cytometry. n=3 animals/group.
FIG. 44. […] Syngeneic mice bearing established PTEN-proficient (PTEN^+/+) and PTEN-deficient (PTEN^−/−) Myc-CAP tumors (200 mm^3) were treated with DMXAA ([…] intra-tumoral dose) for 12 days. Tumor volumes were monitored daily and graphed relative to untreated groups. n=3-5 mice per group.
FIGS. 45A and 45B. […] Syngeneic mice bearing established PTEN-proficient (PTEN^+/+) and PTEN-deficient (PTEN^−/−) Myc-CAP tumors (200 mm^3) were treated with DMXAA (500 μg, single intra-tumoral dose) for 12 days. The harvested tumors were analyzed by flow cytometry for CD45 (45A) and tumor infiltrating immune cell subsets (45B). n=3-5 mice per group.
FIGS. 46A-46C. […] Syngeneic mice bearing established PTEN-proficient (PTEN^+/+) or PTEN-deficient (PTEN^−/−) Myc-CAP tumors (200 mm^3) were treated with DMXAA (500 μg, single intra-tumoral dose) for 12 days. The harvested tumors were analyzed by flow cytometry for activation status of immune cells: (46A) MHC-II/PD-L1 expression on macrophages; (46B) 41bb/PD-1 expression on CD4+FoxP3-T-cells and (46C) on CD8+T-cells. n=3-5 mice per group.
FIG. 47. […] Syngeneic mice bearing established PTEN-proficient (PTEN^+/+) and PTEN-deficient (PTEN^−/−) Myc-CAP tumors (200 mm^3) were treated with DMXAA (500 μg, single intra-tumoral dose) for 12 days. The harvested tumors were analyzed by flow cytometry for CD4+T-cells subsets, specifically FoxP3+ and FoxP3− fractions. n=3-5 mice per group.
In vivo drug efficacy studies using murine tumor models. Wild-type (WT) C57BL/6J, FVB/NJ mice were purchased from Jackson laboratories and mice were kept in an AALAC (American Association for the Accreditation of Laboratory Animal Care) certified barrier facility at the University of Chicago. Animal work was carried out according to approved IACUC (Institutional Animal Care and Use Committee protocols). For Myc-CAP cell line based experiments, mice aged 8-10 weeks were engrafted with 1 million cells re-suspended in 1×PBS, under anesthesia. Treatments were started when tumor volumes reached approximately 250-400 mm^3, and mice were randomly allocated to treatment groups as indicated. Tumor volume was calculated using the formula: 0.5×longest diameter×(shortest diameter)^2. Euthanasia was performed for tumor ulceration and/or tumor diameter >2 cm, as per IACUC-approved protocol. All in vivo treatments were done for 20-23 days and tumor volume measurements were collected on a daily basis. For ID8 tumors, the weights (gm) as well as the abdominal girth (mm) measurements were recorded daily. […]

The mark [1] stands for this setting: copanlisib 14 mg/kg every other day.
The mark [2] stands for this setting: DMXAA 500 μg single intra-tumoral dose, 12 days.
Where [3] appears, read: relative to PTEN-proficient counterparts.

Regarding `COc1c(OCCCN2CCOCC2)ccc2c1N=C(NC(=O)c1cnc(N)nc1)N1CCN=C21` [copanlisib], under setting [1], the MDSC infiltration result is listed as “decreasing” and the tumor growth result was “retards growth”.

Take `Cc1ccc2c(=O)c3cccc(CC(=O)O)c3oc2c1C` [DMXAA, 5,6-Dimethylxanthenone-4-acetic Acid]: under setting [2], the Gr-MDSCs result is “trend towards decreasing Gr-MDSCs” and the “global immune infiltration (CD45)” value was “increases global immune infiltration”. The “tumor responsiveness of PTEN-deficient relative to PTEN-proficient Myc-CAP tumors” value (DMXAA single intra-tumoral dose, 12 days) was “more responsive”. For the same compound, the “response of PTEN-deficient prostate cancers to direct STING agonist” value (PTEN-deficient prostate cancer murine models (Example 1)) is recorded as “resistant”. Further, under setting [3], the “macrophage, CD4 and CD8 T-cell activation” value was “selectively increases macrophage, CD4 and CD8 T-cell activation”; the “regulatory T-cell infiltration” value is “increases regulatory T-cell infiltration”.
